Measured values taken from US20230158057A1, “COMPOSITIONS AND METHODS FOR THE TREATMENT OF PAIN” (Duke University, priority 2020, published 2023).

Tests used:
[1] = test system: outer lamina II (IIo) spinal cord interneurons; assay: Whole-cell patch-clamp recording in mouse spinal cord slices; type: cell-based; details: slice incubation
Method: Whole-cell patch-clamp recording in mouse spinal cord slices: 4 to 6-week-old mice were anesthetized with urethane (1.5-2.0 g/kg, i.p.). […] After extraction of the spinal cord under anesthesia, animals were rapidly euthanized via decapitation. Transverse spinal slices (300 to 400 μm) were prepared using a vibrating microtome (VT1200S Leica). The slices were incubated at 32° C. for at least 30 min in ACSF equilibrated with 95% O2 and 5% CO2. The slices were placed in a recording chamber and completely submerged and perfused at a flow rate of 2 to 4 ml/min with ACSF saturated with 95% O2 and 5% CO2 at room temperature. Lamina II neurons in lumbar segments were identified as a translucent band under a microscope (BX51WIF; Olympus) with light transmitted from below. Whole-cell voltage-clamp recordings were made from outer lamina II neurons using patch pipettes. The patch pipette solution used to record sEPSCs contained 135 mM K-gluconate, 5 mM KCl, 0.5 mM CaCl2, 2 mM MgCl2, 5 mM EGTA, 5 mM HEPES, and 5 mM Mg-ATP (pH 7.3 adjusted with KOH). […] Signals were acquired using an […] amplifier. The data were stored and analyzed with a PC using pCLAMP 10.3 software.

[2] = test system: CTX-I; assay: Serum CTX-I ELISA; type: in vivo, mouse; details: d17
Method: ELISA. Mouse high-sensitivity IFN-α ELISA kit (42115-1) and IFN-β ELISA kit (42410-1) were purchased from PBL Assay Science. Mouse CTX-I ELISA kit (AC-06F1) and mouse PINP ELISA kit (AC-33F1) were purchased from Immunodiagnostic Systems. ELISA was performed using culture medium, serum, and bone marrow lysates. Serum was obtained from whole blood that was collected from a submandibular vein via facial vein puncture, coagulated for 30 minutes at room temperature, followed by centrifugation (2,000 ×g for 10 min, 4° C.) and collection of the supernatant (serum). Bone marrow was homogenized in a lysis buffer containing protease inhibitors at 4° C. for 30 minutes. ELISA was conducted in accordance with the manufacturer's instructions. A standard curve was performed for each experiment.

[3] = test system: osteoclasts and osteoblasts in tumor-bearing distal femora; assay: TRAP and ALP staining on mouse femurs; type: in vivo
Method: Bone histology, TRAP, and ALP staining on mouse femurs. Mice were deeply anesthetized and perfused intracardially with 4% paraformaldehyde (PFA) in 0.1M phosphate buffered saline. The femora were removed and then post-fixed for 48 h in the same fixative at 4° C. After demineralization in EDTA (10%) for 10 days, femur samples were dehydrated in an ascending gradient of ethanol (30-100%) followed by paraffin embedding. Serial sections for trabecular bone were obtained from the distal femur at a thickness of 5 μm followed by tartrate-resistant acid phosphatase (TRAP) staining or alkaline phosphatase (ALP) staining using TRAP kits (Fast Red TR/Naphthol AS-MX, Sigma, St. Louis, Mo.) and NBT/BCIP (Thermo Scientific), respectively. Bone static histomorphometric analyses for […] and osteoblast number (osteoblast number per trabecular bone surface, Ob.N/BS) were conducted using Image J (NIH) based on images taken by a Leica Q500MC microscope. Osteoclasts, osteoblasts and trabecular bone at the metaphysis of the femur (1500 μm proximal to the distal growth plate) were quantified, since bone destruction in this model mainly occurs in this area. Three sections per animal were randomly chosen and used for quantification.

[4] = test system: tumor-bearing femora; assay: Microcomputed tomography of tumor-bearing femurs; type: in vivo, mouse
Method: Microcomputed tomography. Microcomputed tomography (MicroCT) analyses were performed on femurs from tumor inoculated mice or naïve mice using a VivaCT 80 scanner with the 55-kVp source (Scanco, Southeastern, Pa.) as previously described (Wang, C. et al. “NOTCH signaling in skeletal progenitors is critical for fracture repair.” The Journal of Clinical Investigation 126, 1471-1481 (2016); Cao, C. et al. “Increased Ca2+ signaling through CaV1.2 promotes bone formation and prevents estrogen deficiency-induced bone loss.” JCI Insight 2, (2017)). Quantification of microCT data was calculated for distal femurs of mice treated with vehicle or DMXAA. Parameters quantified included bone volume/total volume (BV/TV) and connectivity density (Conn.D) within a region of 100 slides and 200 slides proximal to the distal growth plate.

| Structure (SMILES) | frequency and amplitude of spontaneous EPSCs (sEPSCs) [1] | serum CTX-I levels [2] | osteoblasts ([3]; d11) | osteoclast numbers ([3]; d11, 2×20 mg/kg i.p.) | cortical bone volume/total volume (BV/TV) ([4]; d11) | trabecular bone connectivity density (Conn.D) ([4]; d11) | trabecular bone loss and cortical bone lesions (3D reconstruction) ([4]; d11 after tumor implantation) |
| --- | --- | --- | --- | --- | --- | --- | --- |
| Nc1ncnc2c1ncn2[C@@H]1O[C@@H]2COP(=O)([S-])O[C@@H]3[C@H](O)[C@@H](COP([O-])(=S)O[C@H]2[C@H]1O)O[C@H]3n1cnc2c(N)ncnc21.[Na+].[Na+] (stereo partly drawn) [ADU-S100, (2′-5′)-[P(R)]-5′-O-[(R)-hydroxymercaptophosphinyl]-P-thioadenylyl-adenosine cyclic dinucleotide] | decreased both the frequency and amplitude of spontaneous EPSCs | – | – | – | – | – | – |
| Cc1ccc2c(=O)c3cccc(CC(=O)O)c3oc2c1C [DMXAA, 2-(5,6-dimethyl-9-oxo-9H-xanthen-4-yl)acetic acid] | – | could effectively reduce CTX-I levels on d17 | no changes were observed in bone-forming osteoblasts | far significantly fewer osteoclasts | increased cortical bone volume/total volume (BV/TV) | higher trabecular bone connectivity density (Conn.D) | less bone cancer-induced trabecular bone loss and fewer cortical bone lesions |
